Experimental findings from US20110034413A1, “NOVEL QUERCETIN DERIVATIVES AS ANTI-CANCER AGENTS” (priority 2007, published 2011) are described below.

Data set [1] can be described thus: Aqueous solubility by UV spectrophotometry (500 μM solutions in aqueous media from DMSO stock). In kind it is physicochemical. The following applies: for Aqueous solubility compared with Quercetin (II) / QC-12 (IV), in words: comparison drawn from Table-II; for solubility: kinetic from dmso stock, aqueous media, 500 μM solution prepared from DMSO stock, UV OD at λmax. Here is the method:
The aqueous solubility of the novel Quercetin derivatives of formula (I) were determined and subsequently compared with QC 12. 500 μM solutions of the various novel Quercetin derivatives were prepared in aqueous media from DMSO stock solution. The samples were scanned in UV spectrophotometer at its λmax to obtain optical density (O.D) of the compound. Concentration against the OD value was obtained by calibration curve constructed by plotting the Optical density Vs concentration of calibration standards of the compounds.
Calibration standards were prepared by diluting the stock solution of the compound further in suitable solvents ensuring the overall compound solubility. Calibration standard of concentration 500 μM, 200 μM, 50 μM, 12.5 μM and 3.13 μM were prepared. These calibration standards were scanned in UV spectrophotometer at its highest wavelength (λmax) to obtain the optical density values (OD). A standard curve was constructed by plotting the Optical density Vs concentration.

Data set [2] in a line: Plasma stability (half-life in plasma, 100 μM, 37° C., liquid chromatography). In kind it is in vitro ADME. The following applies: plasma spiked at 100 μM, incubated at 37° C. Here is the method:
The Plasma stability of the novel Quercetin derivatives of formula (I) were evaluated by determining their half-life in plasma and subsequently compared with QC-12 (IV). Plasma samples of concentration 100 μM spiked with the compounds were incubated at 37° C. and at specified time point the samples were quenched using chilled acetonitrile. Samples were then analyzed using liquid chromatography to determine the concentration at respective time point. Half-life was calculated from the logarithmic curve drawn between time and concentration.

Data set [3] deals with SKOV3 (Ovary) cancer cells. The experiment in a line: Colorimetric MTT conversion assay, SKOV3. In kind it is cell-based. The following applies: Homo sapiens, SK-OV-3, 72 h exposure, 10 μM to 100 μM. How it is done: (§1) The anticancer potential of the novel Quercetin derivatives of formula (I) were evaluated and subsequently compared with Quercetin (II). The anticancer potential was determined by the colorimetric MTT conversion assay of Mossman. Human cancer cells representing ovary (PA-1; SK-OV-3); prostate (DU 145); lung (A-549) and normal fibroblast (NIH-3T3) were separately seeded at density of 1000 cells/well into 96 well plates in 180 μl of culture medium with 10% fetal calf serum. After 24 h, cells were incubated with different concentrations of the novel Quercetin derivatives ranging from 10 μM to 100 μM with relevant controls at 37° C. in a CO2 incubator in triplicate wells. The exposure medium (Quercetin derivatives in culture medium) of all the cells was refreshed after every 24 h. Cells were incubated with the derivatives for total of 72 h. The assay was terminated by the addition of 20 μl, of MTT solution (5 mg/ml) in each well and percentage cytotoxicity was calculated as given below. The IC50 values were determined by nonlinear regression using Prism software v 4.01.
(§2) Percentage Cytotoxicity=100×[1−(X/R1)], where X=absorbance of treated sample at 540 nm

Data set [4] deals with PA-1 (Ovary) cancer cells. The experiment in a line: Colorimetric MTT conversion assay, PA-1. In kind it is cell-based. As to conditions: Homo sapiens, 72 h exposure, 10 μM to 100 μM. Here is the method:
as §1, §2

The test system of data set [5] is DU 145 (Prostate) cancer cells. The experiment in a line: Colorimetric MTT conversion assay, DU 145. As to conditions: Homo sapiens, 72 h exposure, 10 μM to 100 μM. It counts as cell-based. How it is done:
as §1, §2
For orientation: Tetrazolium dyes change colour on reduction, which living cells bring about.

Data set [6] relates to NIH 3T3 (Normal) fibroblast. As to the kind of experiment: Colorimetric MTT conversion assay, NIH 3T3. In kind it is cell-based. As to conditions: Mus musculus, NIH3T3, 72 h exposure, 10 μM to 100 μM. Here is the method: as §1, §2
The test system of data set [7] is different Cancer Cell Lines. As to the kind of experiment: Colorimetric MTT conversion assay, overall comparison over the cell line panel. In kind it is cell-based, Human. The following applies: comparison drawn from Table-IV. Here is the method: as §1, §2
Data set [8] has as its system A 549 (Lung) cancer cells. As to the kind of experiment: Colorimetric MTT conversion assay, A 549. It counts as cell-based. The following applies: Homo sapiens, A549, 72 h exposure, 10 μM to 100 μM. How it is done: as §1, §2

Molecules are shown by their SMILES. Converted amounts (≈) assume the structure as drawn.

By solubility is commonly meant the dissolved amount per volume that the medium holds. For orientation: half-life means the time in which the quantity being followed falls by half. A higher half-life goes with slow loss. A word on the IC50: it is the concentration that gives 50% inhibition. A higher IC50 goes with a need for much substance. Take `CC(=O)OCOc1cc(-c2oc3cc(O)cc(O)c3c(=O)c2O)ccc1O` [Compound No. 8, (2-hydroxy-5-(3,5,7-trihydroxy-4-oxo-4H-chromen-2-yl)phenoxy)methyl acetate]: the “Aqueous solubility compared with Quercetin (II) / QC-12 (IV), in words” value in data set [1] is “better solubility than Quercetin (II)”. In addition, the solubility in data set [1] came out at 16.5 µM. Moreover, the half-life at 100 μM in data set [2] was under 3 min. The concentration for half-maximal inhibition (IC50) in data set [3] is over 100 µM; in data set [4], 19.4 µM; in data set [5], over 100 µM; in data set [6], over 100 µM. For the same compound, in data set [7], the “Cytotoxic potential compared with Quercetin (II), in words” value is listed as “better cytotoxic potential than Quercetin (II)”.

In data set [1], `CC(C)(C)C(=O)OCOc1cc(-c2oc3cc(OCc4ccccc4)cc(O)c3c(=O)c2OCc2ccccc2)ccc1OCc1ccccc1` [Compound No. 1, (2-(Benzyloxy)-5-(3,7-bis(benzyloxy)-5-hydroxy-4-oxo-4H-chromen-2-yl)phenoxy)methyl pivalate] had a solubility of 1.48 µM (≈ 1.02 µg/mL). For the same compound, the IC50 in data set [3], in data set [4], in data set [5] and in data set [6] was over 100 µM throughout.

In turn, `CC(=O)OCOc1cc(-c2oc3cc(OCc4ccccc4)cc(O)c3c(=O)c2OCc2ccccc2)ccc1OCc1ccccc1` [Compound No. 2, (2-(Benzyloxy)-5-(3,7-bis(benzyloxy)-5-hydroxy-4-oxo-4H-chromen-2-yl)phenoxy)methyl acetate] registered a solubility in data set [1] of 0.591 µM. In addition, the IC50 in data set [3], in data set [4], in data set [5] and in data set [6] was over 100 µM in each case.

In the case of `O=C(O)CNC(=O)Oc1cc(-c2oc3cc(O)cc(O)c3c(=O)c2O)ccc1O` [QC-12 (IV), reference compound], the solubility in data set [1] is over 200 µM. Also, in data set [2], the half-life at 100 μM is 43.9 min.

Take `CC(C)(C)C(=O)OCOc1cc(-c2oc3cc(O)cc(O)c3c(=O)c2O)ccc1O` [Compound No. 7, (2-hydroxy-5-(3,5,7-trihydroxy-4-oxo-4H-chromen-2-yl)phenoxy)methyl pivalate]: in data set [1], the “Aqueous solubility compared with Quercetin (II) / QC-12 (IV), in words” value was “better solubility than Quercetin (II)”. In data set [1], this compound registered a solubility of 30.6 µM (≈ 12.7 µg/mL). In addition, in data set [2], the half-life at 100 μM worked out at 6.24 min. In addition, the IC50 in data set [3] was over 100 µM; in data set [4] it was 20.9 µM; in data set [5], 83.1 µM; in data set [6], over 100 µM. The “Cytotoxic potential compared with Quercetin (II), in words” value in data set [7] is reported as “better cytotoxic potential than Quercetin (II)”.

Turning to `O=c1c(O)c(-c2ccc(O)c(O)c2)oc2cc(O)cc(O)c12` [Quercetin (II), 2-(3,4-Dihydroxyphenyl)-3,5,7-trihydroxy-4H-1-benzopyran-4-one, reference compound], the solubility in data set [1] turned out to be 4.02 µM (≈ 1.22 µg/mL). For the same compound, the half-maximal inhibitory concentration (IC50) was 88.4 µM in data set [3]; 35.3 µM in data set [4]; over 100 µM in data set [5]; 83.7 µM in data set [8]; 68.7 µM in data set [6].

`CCCC(=O)OCOc1cc(-c2oc3cc(O)cc(O)c3c(=O)c2O)ccc1O` [Compound No. 14, (2-hydroxy-5-(3,5,7-trihydroxy-4-oxo-4H-chromen-2-yl)phenoxy)methyl butyrate]: the “Aqueous solubility compared with Quercetin (II) / QC-12 (IV), in words” value in data set [1] is “solubility comparable to QC-12 (IV)”. In data set [1], this compound had a solubility of 199 µM (≈ 80.1 µg/mL). The compound also had a half-life at 100 μM in data set [2] of under 3 min. Moreover, the IC50 was 94.6 µM in data set [3]; under 10 µM in data set [4]; over 100 µM in data set [5]; 61.9 µM in data set [8]; over 100 µM in data set [6]. Further, the “Cytotoxic potential compared with Quercetin (II), in words” value in data set [7] was “better cytotoxic potential than Quercetin (II)”.

For `CCCC(=O)OCOc1cc(-c2oc3cc(OCc4ccccc4)cc(O)c3c(=O)c2OCc2ccccc2)ccc1OCc1ccccc1` [Compound No. 13, (2-(Benzyloxy)-5-(3,7-bis(benzyloxy)-5-hydroxy-4-oxo-4H-chromen-2-yl)phenoxy)methyl butyrate], in data set [1], the solubility is under 3.13 µM. The 50% inhibitory concentration (IC50) in data set [3], in data set [4], in data set [5], in data set [8] and in data set [6] was over 100 µM in each case.
